From patent US20250186437A1, “CARBOLINE COMPOUNDS AND USE THEREOF” (PTC Therapeutics, Inc., priority 2021, published 2025)

Each compound was assayed on MOLM-13 cells (assay: MOLM-13 Cell Proliferation Assay (indicator of DHODH inhibition)). Conditions: Homo sapiens, 72 Hours of culture, CellTiter-Glo, no uridine.
Format: cell-based
Outline: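 Proliferation readout via CellTiter-Glo luminescence after 72 h compound treatment (37 °C, 5% CO2, 0.5% DMSO) of MOLM-13 cells seeded at 10^4 per well in RPMI 1640/10% FBS, used as a DHODH-inhibition indicator since these cells rely on de novo pyrimidine synthesis.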

Row | SMILES | IC50
1 | CN(C)c1nc(N2CCc3c([nH]c4ccc(Cl)cc34)[C@@H]2c2cnc(N3CCOCC3)nc2)nc(C(F)(F)F)n1 [Compound 444, 4-{(1S)-6-chloro-1-[2-(morpholin-4-yl)pyrimidin-5-yl]-1,3,4,9-tetrahydro-2H-pyrido[3,4-b]indol-2-yl}-N,N-dimethyl-6-(trifluoromethyl)-1,3,5-triazin-2-amine] | 5.8 nM
2 | CN1CCN(c2ncc([C@H]3c4[nH]c5ccc(-n6nccn6)cc5c4CCN3c3nc(C(F)(F)F)cc(C(F)(F)F)n3)cn2)CC1 [Compound 500, (1S)-2-[4,6-bis(trifluoromethyl)pyrimidin-2-yl]-1-[2-(4-methylpiperazin-1-yl)pyrimidin-5-yl]-6-(2H-1,2,3-triazol-2-yl)-2,3,4,9-tetrahydro-1H-pyrido[3,4-b]indole] | 0.8 nM
3 | Fc1cnc(N2CCc3c([nH]c4cc(F)c(Cl)cc34)C2c2cccc(F)c2)nc1 (centres unmarked) [Compound 58, 6-chloro-7-fluoro-1-(3-fluorophenyl)-2-(5-fluoropyrimidin-2-yl)-2,3,4,9-tetrahydro-1H-pyrido[3,4-b]indole] | 89.8 nM
4 | Cc1cccc(C2c3[nH]c4ccc(Cl)cc4c3CCN2c2nccc(C(F)(F)F)n2)c1F (centres unmarked) [Compound 259, 6-chloro-1-(2-fluoro-3-methylphenyl)-2-[4-(trifluoromethyl)pyrimidin-2-yl]-2,3,4,9-tetrahydro-1H-pyrido[3,4-b]indole] | 1 nM
5 | COc1nc(C)nc(N2CCc3c([nH]c4ccc(Cl)cc34)C2c2cnc(N3CCOCC3)nc2)n1 (centres unmarked) [Compound 295, 6-chloro-2-(4-methoxy-6-methyl-1,3,5-triazin-2-yl)-1-[2-(morpholin-4-yl)pyrimidin-5-yl]-2,3,4,9-tetrahydro-1H-pyrido[3,4-b]indole] | 14.7 nM
6 | Cc1nc(N2CCc3c([nH]c4cc(F)c(Cl)cc34)C2c2cccc(F)c2F)ncc1F (centres unmarked) [Compound 124, 6-chloro-1-(2,3-difluorophenyl)-7-fluoro-2-(5-fluoro-4-methylpyrimidin-2-yl)-2,3,4,9-tetrahydro-1H-pyrido[3,4-b]indole] | 8.6 nM
7 | Cc1nc(C)nc(N2CCc3c([nH]c4ccc(Cl)cc34)C2c2cnc(N3C4CCC3COC4)nc2)n1 (centres unmarked) [Compound 338, 6-chloro-2-(4,6-dimethyl-1,3,5-triazin-2-yl)-1-[2-(3-oxa-8-azabicyclo[3.2.1]octan-8-yl)pyrimidin-5-yl]-2,3,4,9-tetrahydro-1H-pyrido[3,4-b]indole] | 35 nM
8 | O=C(O)CCNc1ncc([C@H]2c3[nH]c4ccc(Cl)cc4c3CCN2c2nc(C(F)(F)F)nc(C(F)(F)F)n2)cn1 [Compound 537, N-(5-{(1S)-2-[4,6-bis(trifluoromethyl)-1,3,5-triazin-2-yl]-6-chloro-2,3,4,9-tetrahydro-1H-pyrido[3,4-b]indol-1-yl}pyrimidin-2-yl)-β-alanine] | 4 nM
9 | Cc1ccc([C@H]2c3[nH]c4ccc(Cl)cc4c3CCN2c2nc(C(F)F)nc(C(F)(F)F)n2)c(F)c1F [Compound 510, (1S)-6-chloro-1-(2,3-difluoro-4-methylphenyl)-2-[4-(difluoromethyl)-6-(trifluoromethyl)-1,3,5-triazin-2-yl]-2,3,4,9-tetrahydro-1H-pyrido[3,4-b]indole] | 0.1 nM
10 | Cc1cc(O)c2[nH]c3c(c2c1)CCN(c1nccc(C(F)(F)F)n1)C3c1ccc(C)c(F)c1F (centres unmarked) [Compound 276, 1-(2,3-difluoro-4-methylphenyl)-6-methyl-2-[4-(trifluoromethyl)pyrimidin-2-yl]-2,3,4,9-tetrahydro-1H-pyrido[3,4-b]indol-8-ol] | 0.6 nM
11 | FC(F)(F)c1nc(N2CCOCC2)nc(N2CCc3c([nH]c4ccc(Cl)cc34)C2c2ccc(N3CCOCC3)nc2)n1 (centres unmarked) [Compound 428, 6-chloro-1-[6-(morpholin-4-yl)pyridin-3-yl]-2-[4-(morpholin-4-yl)-6-(trifluoromethyl)-1,3,5-triazin-2-yl]-2,3,4,9-tetrahydro-1H-pyrido[3,4-b]indole] | 5.2 nM
12 | FC(F)(F)c1cnnc(N2CCc3c([nH]c4ccc(Cl)cc34)C2c2cnc(N3CCOCC3)nc2)n1 (centres unmarked) [Compound 383, 6-chloro-1-[2-(morpholin-4-yl)pyrimidin-5-yl]-2-[5-(trifluoromethyl)-1,2,4-triazin-3-yl]-2,3,4,9-tetrahydro-1H-pyrido[3,4-b]indole] | 1.6 nM
13 | Oc1ccccc1C1c2[nH]c3ccc(Cl)cc3c2CCN1c1nccc(C(F)(F)F)n1 (centres unmarked) [Compound 353, 2-{6-chloro-2-[4-(trifluoromethyl)pyrimidin-2-yl]-2,3,4,9-tetrahydro-1H-pyrido[3,4-b]indol-1-yl}phenol] | 5.7 nM
14 | Fc1c(Cl)ccc(C2c3[nH]c4ccc(Cl)cc4c3CCN2c2nccc(C(F)(F)F)n2)c1F (centres unmarked) [Cpd 144, 6-chloro-1-(4-chloro-2,3-difluorophenyl)-2-[4-(trifluoromethyl)pyrimidin-2-yl]-2,3,4,9-tetrahydro-1H-pyrido[3,4-b]indole] | 0.7 nM
15 | Fc1nc(N2CCOCC2)ccc1C1c2[nH]c3ccc(Cl)cc3c2CCN1c1nccc(C(F)(F)F)n1 (centres unmarked) [Compound 432, 6-chloro-1-[2-fluoro-6-(morpholin-4-yl)pyridin-3-yl]-2-[4-(trifluoromethyl)pyrimidin-2-yl]-2,3,4,9-tetrahydro-1H-pyrido[3,4-b]indole] | 1.6 nM
16 | Cc1ccc([C@H]2c3[nH]c4ccc(Cl)cc4c3CCN2c2nc(N3CCOCC3)nc(C(F)(F)F)n2)c(F)c1F [Compound 436, (1S)-6-chloro-1-(2,3-difluoro-4-methylphenyl)-2-[4-(morpholin-4-yl)-6-(trifluoromethyl)-1,3,5-triazin-2-yl]-2,3,4,9-tetrahydro-1H-pyrido[3,4-b]indole] | 0.6 nM
17 | FC(F)(F)c1ccnc(N2CCc3c([nH]c4ccc(Cl)cc34)C2c2cnc(N3C4CCC3COC4)nc2)n1 (centres unmarked) [Compound 337, 6-chloro-1-[2-(3-oxa-8-azabicyclo[3.2.1]octan-8-yl)pyrimidin-5-yl]-2-[4-(trifluoromethyl)pyrimidin-2-yl]-2,3,4,9-tetrahydro-1H-pyrido[3,4-b]indole] | 8.2 nM
18 | CC(C)c1ccc(C2c3[nH]c4cc(F)c(Cl)cc4c3CCN2c2ncc(C(F)(F)F)cn2)cc1 (centres unmarked) [Compound 99, 6-chloro-7-fluoro-1-[4-(propan-2-yl)phenyl]-2-[5-(trifluoromethyl)pyrimidin-2-yl]-2,3,4,9-tetrahydro-1H-pyrido[3,4-b]indole] | 14 nM
19 | Cc1nc(C)nc(N2CCc3c([nH]c4ccc(Cl)cc34)C2c2ccc(Br)c(F)c2F)n1 (centres unmarked) [Compound 283, 1-(4-bromo-2,3-difluorophenyl)-6-chloro-2-(4,6-dimethyl-1,3,5-triazin-2-yl)-2,3,4,9-tetrahydro-1H-pyrido[3,4-b]indole] | 0.6 nM

Results, then the compound that gave them:

Row | IC50 | SMILES
20 | 0.5 nM | Cc1cc(C#N)nc(N2CCc3c([nH]c4ccc(Cl)c(F)c34)C2c2ccc(C)c(F)c2F)n1 (centres unmarked) [Compound 232, 2-[6-chloro-1-(2,3-difluoro-4-methylphenyl)-5-fluoro-1,3,4,9-tetrahydro-2H-pyrido[3,4-b]indol-2-yl]-6-methylpyrimidine-4-carbonitrile]
21 | 1.3 nM | Fc1c(Cl)ccc2[nH]c3c(c12)CCN(c1nccc(C(F)(F)F)n1)[C@H]3c1ccc(Cl)cc1 [Compound 182, (1S)-6-chloro-1-(4-chlorophenyl)-5-fluoro-2-[4-(trifluoromethyl)pyrimidin-2-yl]-2,3,4,9-tetrahydro-1H-pyrido[3,4-b]indole]
22 | 3.4 nM | CN(C)c1ncc(C2c3[nH]c4ccc(Cl)c(F)c4c3CCN2c2nccc(C(F)(F)F)n2)cn1 (centres unmarked) [Compound 178, 5-{6-chloro-5-fluoro-2-[4-(trifluoromethyl)pyrimidin-2-yl]-2,3,4,9-tetrahydro-1H-pyrido[3,4-b]indol-1-yl}-N,N-dimethylpyrimidin-2-amine]
23 | 65 nM | Cc1ccc([C@H]2c3[nH]c4ccc(Cl)cc4c3CCN2c2nc(N)nc(C(F)(F)F)n2)cc1 [Compound 426, 4-[(1S)-6-chloro-1-(4-methylphenyl)-1,3,4,9-tetrahydro-2H-pyrido[3,4-b]indol-2-yl]-6-(trifluoromethyl)-1,3,5-triazin-2-amine]
24 | 51.4 nM | N#Cc1ccnc(N2CCc3c([nH]c4cc(F)c(Cl)cc34)C2c2ccc(F)cc2)n1 (centres unmarked) [Compound 25, 2-[6-chloro-7-fluoro-1-(4-fluorophenyl)-1,3,4,9-tetrahydro-2H-pyrido[3,4-b]indol-2-yl]pyrimidine-4-carbonitrile]
25 | 38.7 nM | N#Cc1ccc(C2c3[nH]c4cc(F)c(Cl)cc4c3CCN2c2ncc(Cl)cn2)cc1 (centres unmarked) [Compound 59, 4-[6-chloro-2-(5-chloropyrimidin-2-yl)-7-fluoro-2,3,4,9-tetrahydro-1H-pyrido[3,4-b]indol-1-yl]benzonitrile]
26 | 19.1 nM | Fc1cnc(N2CCc3c([nH]c4ccc(Cl)c(F)c34)C2c2ccc(C(F)(F)F)cc2)nc1 (centres unmarked) [Compound 67, 6-chloro-5-fluoro-2-(5-fluoropyrimidin-2-yl)-1-[4-(trifluoromethyl)phenyl]-2,3,4,9-tetrahydro-1H-pyrido[3,4-b]indole]
27 | 2.2 nM | Cc1ccc(C2c3[nH]c4ccc(Cl)c(F)c4c3CCN2c2ncc(F)c(C#N)n2)cc1 (centres unmarked) [Compound 217, 2-[6-chloro-5-fluoro-1-(4-methylphenyl)-1,3,4,9-tetrahydro-2H-pyrido[3,4-b]indol-2-yl]-5-fluoropyrimidine-4-carbonitrile]
28 | 3.9 nM | CN(C)c1ccc(C2c3[nH]c4ccc(Cl)c(F)c4c3CCN2c2nccc(C(F)(F)F)n2)cn1 (centres unmarked) [Compound 177, 5-{6-chloro-5-fluoro-2-[4-(trifluoromethyl)pyrimidin-2-yl]-2,3,4,9-tetrahydro-1H-pyrido[3,4-b]indol-1-yl}-N,N-dimethylpyridin-2-amine]
29 | 5.7 nM | N#Cc1ccc(C2c3[nH]c4ccc(Cl)c(F)c4c3CCN2c2nccc(C(F)(F)F)n2)cc1 (centres unmarked) [Compound 89, 4-{6-chloro-5-fluoro-2-[4-(trifluoromethyl)pyrimidin-2-yl]-2,3,4,9-tetrahydro-1H-pyrido[3,4-b]indol-1-yl}benzonitrile]
